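Dose response: 5 concentrations. Exposure: 48 h. Format: 96-well plates. Endpoint: linear interpolation; highest concentration if not reached. TGI: concentration producing complete growth inhibition.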
Assays:
Test in all cases: DTP human tumour cell line panel, 48 h
SN12C renal = test system: SN12C renal
SK-OV-3 ovarian = test system: SK-OV-3 ovarian
HOP-62 NSCLC = test system: HOP-62 NSCLC
PC-3 prostate = test system: PC-3 prostate
SK-MEL-28 melanoma = test system: SK-MEL-28 melanoma
DU-145 prostate = test system: DU-145 prostate
RPMI-8226 leukemia = test system: RPMI-8226 leukemia
TK-10 renal = test system: TK-10 renal
OVCAR-3 ovarian = test system: OVCAR-3 ovarian
RXF 393 renal = test system: RXF 393 renal
MCF7 breast = test system: MCF7 breast
MDA-N = test system: MDA-N
NCI-H460 lung = test system: NCI-H460 lung
T-47D breast = test system: T-47D breast
NCI-H522 lung = test system: NCI-H522 lung
A498 renal = test system: A498 renal
SK-MEL-2 melanoma = test system: SK-MEL-2 melanoma
SW-620 colon = test system: SW-620 colon
UACC-257 melanoma = test system: UACC-257 melanoma

Structure (SMILES) | TGI (SN12C renal) | TGI (SK-OV-3 ovarian) | TGI (HOP-62 NSCLC) | TGI (PC-3 prostate) | TGI (SK-MEL-28 melanoma) | TGI (DU-145 prostate) | TGI (RPMI-8226 leukemia) | TGI (TK-10 renal) | TGI (OVCAR-3 ovarian) | TGI (RXF 393 renal) | TGI (MCF7 breast) | TGI (MDA-N) | TGI (NCI-H460 lung) | TGI (T-47D breast) | TGI (NCI-H522 lung) | TGI (A498 renal) | TGI (SK-MEL-2 melanoma) | TGI (SW-620 colon) | TGI (UACC-257 melanoma)
Cc1ccnc(Nc2[nH]c(C(=O)c3ccc(Cl)cc3)c(N)c2C(=S)Nc2ccccc2)c1 | 31 µM | 35 µM | 47.3 µM | > 100 µM | 35.9 µM | 63.7 µM | 31.3 µM | 69.2 µM | 93 µM | 32.5 µM | 31.5 µM | 47.9 µM | 27.3 µM | > 100 µM | 27.1 µM | 36.9 µM | 21.5 µM | 69.6 µM | 32.7 µM
CCCN(CCC)C(=O)c1c(N2CCN(C)CC2)c2cccnc2n2c(C)cnc12 | > 100 µM | – | > 100 µM | > 100 µM | > 100 µM | > 100 µM | > 100 µM | > 100 µM | > 100 µM | > 100 µM | > 100 µM | > 100 µM | > 100 µM | > 100 µM | > 100 µM | > 100 µM | > 100 µM | 45.5 µM | > 100 µM
COc1ccc2[nH]c3c(c2c1)CC(=O)N1CCC[C@H](C1)CC31OCCCO1 | > 100 µM | > 100 µM | > 100 µM | > 100 µM | > 100 µM | > 100 µM | > 100 µM | > 100 µM | > 100 µM | > 100 µM | > 100 µM | > 100 µM | > 100 µM | > 100 µM | – | > 100 µM | > 100 µM | > 100 µM | > 100 µM
C(=N\NC1=NCCN1)/c1ccc2ccccc2c1 | 35.4 µM | 34.1 µM | 31 µM | 28.5 µM | 28.7 µM | > 100 µM | 49.4 µM | 26.4 µM | 32.9 µM | 34.6 µM | 32.3 µM | 27.9 µM | 29.5 µM | > 100 µM | 29.6 µM | 28.9 µM | 38 µM | 32.6 µM | 29.3 µM
CC(NNC(=O)c1ccncc1)c1cccc(C(F)(F)F)c1 (centres undefined) | > 100 µM | > 100 µM | > 100 µM | > 100 µM | > 100 µM | > 100 µM | > 100 µM | > 100 µM | – | > 100 µM | > 100 µM | > 100 µM | > 100 µM | > 100 µM | > 100 µM | > 100 µM | > 100 µM | > 100 µM | > 100 µM
Cc1ccc(S(=O)(=O)N(CCNC(=O)c2cccc(O)c2O)c2cc3c4c(c2)Oc2cccc5c2C4(C)c2c(cccc2O3)O5)cc1 | > 100 µM | > 100 µM | > 100 µM | > 100 µM | > 100 µM | > 100 µM | > 100 µM | > 100 µM | > 100 µM | – | > 100 µM | > 100 µM | > 100 µM | > 100 µM | – | > 100 µM | > 100 µM | > 100 µM | > 100 µM
